Key:
[1] = system: GLXMA (Glycine max(L.) MERR, soy bean); assay: Weed control test, foliage treatment (Test Example 1, Table 7); conditions: in vivo
[2] = system: ORYSA (Oryza sativa cv. Dongjin, rice); assay: as above; conditions: in vivo
[3] = system: TRZAW (Tritium aestivum L., wheat); assay: as above; conditions: in vivo
Barnyard grass = assay: Weed control test, 4-leaf stage plants (Test Example 1, Table 8); assay type: in vivo, Echinoch crus-galli Beauv. var. caudata Kitagawa
Text: Seeds of rice, wheat, soy bean, barley, corn, common sorgum, barnyard grass, large crabgrass, creek grass, green foxtail and fall panicum were placed in sandy loam in 600 cm^2 pots and covered with soil. […], 2,000 l/ha of an emulsion obtained by diluting with water a mixture of 1 part by weight of a test compound, 5 parts by weight of acetone and 1 part by weight of an emulsifying agent (Tween 80, Junsei) was applied to the surface of the foliage of the plants. The plant damage at 10 days and 20 days after the foliage treatment was visually evaluated from the level of 1 to 100% by comparison with the untreated control: […]

[4] = system: DIGSA (Digitaria Sanguinalis (L.) SCOP, large crabgrass); assay: Weed control test, foliage treatment (Test Example 1, Table 7); assay type: in vivo; conditions: Digitaria sanguinalis, foliar, read-out: Plant damage (herbicidal activity), visually evaluated, DIGSA; for pest or weed control at 25 g/ha: 0.025 kg/ha; for pest or weed control at 100 g/ha: 0.1 kg/ha; for pest or weed control at 200 g/ha: 0.2 kg/ha
Method in brief: (§1)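 Each compound was mixed with acetone and emulsifier (1:5:1 by weight), diluted in water, and sprayed over the foliage at 2,000 l/ha, timed to the 3-leaf stage of barnyard grass. Growth conditions were sandy loam in a greenhouse at 20 to 30° C. Damage ratings of 1 to 100% against untreated plants followed at days 10 and 20.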

[5] = system: ZEAMX (Zea mays L., corn); assay: as above; assay type: in vivo; conditions: Zea mays, foliar, read-out: Plant damage (herbicidal activity), visually evaluated, ZEAMX; for plant injury at 25 g/ha: 0.025 kg/ha; for plant injury at 100 g/ha: 0.1 kg/ha; for plant injury at 200 g/ha: 0.2 kg/ha
Method in brief: as §1

[6] = system: ARTHIS (Arthraxon hispidus (Thunb.) Makino, creek grass); assay: as above; assay type: in vivo; conditions: Arthraxon hispidus, foliar, read-out: Plant damage (herbicidal activity), visually evaluated, ARTHIS; for pest or weed control at 25 g/ha: 0.025 kg/ha; for pest or weed control at 100 g/ha: 0.1 kg/ha; for pest or weed control at 200 g/ha: 0.2 kg/ha
Method in brief: as §1

[7] = system: SORBI (Andropogon sorghum, common sorgum); assay: as above; assay type: in vivo; conditions: Sorghum bicolor, foliar, read-out: Plant damage (herbicidal activity), visually evaluated, SORBI; for pest or weed control at 25 g/ha: 0.025 kg/ha; for pest or weed control at 100 g/ha: 0.1 kg/ha; for pest or weed control at 200 g/ha: 0.2 kg/ha
Method in brief: as §1

[8] = system: PANDI (Panium dichotomiflorum Michx, fall panicum); assay: as above; assay type: in vivo; conditions: Panicum dichotomiflorum, foliar, read-out: Plant damage (herbicidal activity), visually evaluated, PANDI; for pest or weed control at 25 g/ha: 0.025 kg/ha; for pest or weed control at 100 g/ha: 0.1 kg/ha; for pest or weed control at 200 g/ha: 0.2 kg/ha
Method in brief: as §1

[9] = system: SETVIR (Setaria viridis (L.) Beauv, green foxtail); assay: as above; assay type: in vivo; conditions: Setaria viridis, foliar, read-out: Plant damage (herbicidal activity), visually evaluated, SETVIR; for pest or weed control at 25 g/ha: 0.025 kg/ha; for pest or weed control at 100 g/ha: 0.1 kg/ha; for pest or weed control at 200 g/ha: 0.2 kg/ha
Method in brief: as §1

[10] = system: ECHOG (Echinoch crus-galli Beauv. var. caudata Kitagawa, barnyard grass); assay: as above; assay type: in vivo; conditions: Echinochloa crus-galli, foliar, 3-leaf stage, read-out: Plant damage (herbicidal activity), visually evaluated, ECHOG; for pest or weed control at 25 g/ha: 0.025 kg/ha; for pest or weed control at 100 g/ha: 0.1 kg/ha; for pest or weed control at 200 g/ha: 0.2 kg/ha
Method in brief: as §1

Rice = assay: Weed control test, 4-leaf stage plants (Test Example 1, Table 8); conditions: in vivo
Description: Seeds of rice, wheat, soy bean, barley, corn, common sorgum, barnyard grass, large crabgrass, creek grass, green foxtail and fall panicum were placed in sandy loam in 600 cm^2 pots and covered with soil. After keeping the pots in a greenhouse at 20 to 30° C. allowing growth of the plants to the 3-leaf stage of the barnyard grass, 2,000 l/ha of an emulsion obtained by diluting with water a mixture of 1 part by weight of a test compound, 5 parts by weight of acetone and 1 part by weight of an emulsifying agent (Tween 80, Junsei) was applied to the surface of the foliage of the plants. The plant damage at 10 days and 20 days after the foliage treatment was visually evaluated from the level of 1 to 100% by comparison with the untreated control: […]

[11] = system: HORVU (Hordeum vulgare L., barley); assay: Weed control test, foliage treatment (Test Example 1, Table 7); conditions: in vivo

Structure (SMILES) | Plant damage (herbicidal activity), visually evaluated, GLXMA [1] [%] | Plant damage (herbicidal activity), visually evaluated, ORYSA [2] [%] | Plant damage (herbicidal activity), visually evaluated, TRZAW [3] [%] | pest or weed control at 25 g/ha [4] [%] | pest or weed control at 100 g/ha [4] [%] | pest or weed control at 200 g/ha [4] [%] | plant injury at 25 g/ha [5] [%] | plant injury at 100 g/ha [5] [%] | plant injury at 200 g/ha [5] [%] | pest or weed control at 25 g/ha [6] [%] | pest or weed control at 100 g/ha [6] [%] | pest or weed control at 200 g/ha [6] [%] | pest or weed control at 25 g/ha [7] [%] | pest or weed control at 100 g/ha [7] [%] | pest or weed control at 200 g/ha [7] [%] | pest or weed control at 25 g/ha [8] [%] | pest or weed control at 100 g/ha [8] [%] | pest or weed control at 200 g/ha [8] [%] | pest or weed control at 25 g/ha [9] [%] | pest or weed control at 100 g/ha [9] [%] | further results
C[C@@H](Oc1ccc(Oc2nc3ccc(Cl)cc3o2)cc1)C(=O)N(C)c1nc2ccccc2s1 [Example 6, (R)-2-[4-(6-chloro-2-benzoxazolyloxy)phenoxy]propionic acid-N-(2-benzothiazolyl)-N-methyl amide] | 0 | 0 | 0 | 0 | 20 | 70 | 0 | 10 | 90 | 0 | 20 | 50 | 10 | 50 | 90 | 0 | 20 | 70 | 0 | 20 | Plant damage (herbicidal activity), visually evaluated, Barnyard grass (Barnyard grass; 0.025 kg/ha): 0%; Plant damage (herbicidal activity), visually evaluated, Barnyard grass (Barnyard grass; 0.05 kg/ha): 0%; Plant damage (herbicidal activity), visually evaluated, Barnyard grass (Barnyard grass; 0.1 kg/ha): 10%; Plant damage (herbicidal activity), visually evaluated, Barnyard grass (Barnyard grass; 0.4 kg/ha): 30%; pest or weed control at 200 g/ha [9]: 50%; pest or weed control at 25 g/ha [10]: 0%; pest or weed control at 100 g/ha [10]: 20%; pest or weed control at 200 g/ha [10]: 70%; Plant damage (herbicidal activity), visually evaluated, Rice (Rice): 0%
C[C@@H](Oc1ccc(C(F)=C(c2ccccc2)C(F)(F)F)cc1)C(=O)Nc1ccccc1F [Example 42, (R)-2-[4-(1,3,3,3-tetrafluoro-2-phenylprop-1-enyl)phenoxy]propionic acid-N-(2-fluorophenyl)amide] | 0 | 0 | 0 | 0 | 0 | 20 | 0 | 30 | 90 | 0 | 0 | 50 | 0 | 0 | 0 | 0 | 0 | 70 | 0 | 0 | Plant damage (herbicidal activity), visually evaluated, HORVU [11]: 0%; pest or weed control at 200 g/ha [9]: 70%; pest or weed control at 25 g/ha [10]: 0%; pest or weed control at 100 g/ha [10]: 20%; pest or weed control at 200 g/ha [10]: 20%
C[C@@H](Oc1ccc(C(F)=C(c2ccccc2)C(F)(F)F)cc1)C(=O)Nc1nc2cc(Cl)ccc2o1 [Example 55, (R)-2-[4-(1,3,3,3-tetrafluoro-2-phenylprop-1-enyl)phenoxy]propionic acid-N-(5-chloro-2-benzoxazolyl)amide] | 0 | 0 | 0 | 0 | 0 | 0 | 10 | 10 | 30 | 0 | 0 | 0 | 10 | 20 | 35 | 0 | 0 | 0 | 0 | 0 | Plant damage (herbicidal activity), visually evaluated, HORVU [11]: 0%; pest or weed control at 200 g/ha [9]: 0%; pest or weed control at 25 g/ha [10]: 0%; pest or weed control at 100 g/ha [10]: 0%; pest or weed control at 200 g/ha [10]: 0%
C[C@@H](Oc1ccc(OC(F)=Cc2ccc(Cl)cc2)cc1)C(=O)Nc1nc2cc(Cl)ccc2o1 [Example 56, (R)-2-[4-(1-fluoro-2-(4-chlorophenyl)vinyloxy)phenoxy]propionic acid-N-(5-chloro-2-benzoxazolyl)amide] | 0 | 0 | 0 | 0 | 20 | 90 | 10 | 90 | 90 | 0 | 0 | 10 | 0 | 20 | 20 | 0 | 0 | 10 | 0 | 0 | Plant damage (herbicidal activity), visually evaluated, HORVU [11]: 0%; pest or weed control at 200 g/ha [9]: 20%; pest or weed control at 25 g/ha [10]: 20%; pest or weed control at 100 g/ha [10]: 70%; pest or weed control at 200 g/ha [10]: 90%
